# Measurements reported in patent US10940188B2, “Compounds and methods for treatment and prevention of Flavivirus infection” (priority 2016, dated 2021).
# Test system: ZIKV-induced cell death in hNPCs
# Experiment: ATP cell viability assay for ZIKV-induced cell death, hNPCs
# Type: cell-based, human
# Conditions: Homo sapiens; ZIKV-infected hNPCs; read-out: Cell viability (IC50, uM) NPCs
# Experimental: (§1) The reagent was reconstituted and prepared as described by the manufacturer. In order to measure the cell death caused by ZIKV infection, cells were cultured for 16 hours at 37° C. with 5% CO2 in assay plates, followed by the addition of ZIKV solution and incubation at 37° C. with 5% CO2 for 72 hours. ATPlite, the ATP monitoring reagent, was then added to the assay plates and they were incubated for 15 minutes. The resulting luminescence was measured using the ViewLux plate reader (Perkin Elmer). Data were normalized using the wells without cells as a control for 100% cell killing, and cell-containing wells without ZIKV infection were used as full cell viability (0% cell killing).
# Human NPCs were seeded onto PDL coated 1536-well assay plates at 250 cells per 3 μl/well and incubated at 37° C. in 5% CO2 for 16 hours. Test compounds dissolved in DMSO were transferred to assay plates at a volume of 23 nl/well by an automated pintool workstation (Wako Automation, San Diego, Calif.). Compounds were incubated with cells for 30 minutes at 37° C. in 5% CO2, immediately followed by the addition of 2 μl/well of ZIKV. Incubation time of compound-treated cells with ZIKV varied based on assay format. Experiments measuring virus-induced caspase 3/7 activity required a 6 hour incubation of ZIKV in the presence compounds at 37° C. in 5% CO2. Following this incubation, 3.5 μl/well of caspase 3/7 reagent mixture was added to assay plates. The plates were incubated for 30 minutes at room temperature, and the resultant luminescence signal was measured using a ViewLux plate reader (Perkin Elmer). Experiments measuring virus-induced cell death required a 72-hour incubation of ZIKV in the presence of compounds at 37° C. in 5% CO2. Following this incubation, 3.5 μl/well of ATP content detection reagent was added to assay plates, incubated for 30 minutes at the room temperature, and the resultant luminescence signal was measured in a ViewLux plate reader.
# as §1, with “The ATPlite luminescence assay system assay kit (PerkinElmer) was used to determine cell viability. The reagent” for “The reagent”, “by the manufacture. In order” for “by the manufacturer. In order”, “followed by addition of” for “followed by the addition of”, “plates and incubated for” for “plates and they were incubated for”, “Elmer). Data was normalized using” for “Elmer). Data were normalized using”
# Human NPCs were seeded onto PDL coated 1536-well assay plates at 250 cells per 3 μl/well and incubated at 37° C. in 5% CO2 for 16 hours. Test compounds dissolved in DMSO were transferred to assay plates at a volume of 23 nl/well by an automated pintool workstation (Wako Automation, San Diego, Calif.). Compounds were incubated with cells for 30 minutes at 37° C. in 5% CO2, immediately followed by the addition of 2 μl/well of ZIKV. Incubation time of compound-treated cells with ZIKV varied based on assay format. Experiments measuring virus induced caspase 3/7 activity required a 6 hour incubation of ZIKV in the presence compounds at 37° C. in 5% CO2. Following this incubation, 3 μl/well of caspase 3/7 reagent mixture was added to assay plates, incubated for 30 minute at room temperature, and the resultant luminescence signal was measured using a ViewLux plate reader (Perkin Elmer). Experiments measuring the virus induced cell death required a 72 hour incubation of ZIKV in the presence of compounds at 37° C. in 5% CO2. Following this incubation, 3 μl/well of ATP content detection reagent was added to assay plates, incubated for 30 minute at room temperature, and the resultant luminescence signal was measured in a ViewLux plate reader.
row,Structure (SMILES),IC50 [µM]
1,O=C(O)c1ccccc1NCCc1ccccc1 [Enfenamic acid],7.74
2,C[C@H](NC(=O)C(=O)Nc1ccccc1C(C)(C)C)C(=O)N[C@@H](CC(=O)O)C(=O)COc1c(F)c(F)cc(F)c1F [Emricasan],3.88

# Same assay, conditions: Homo sapiens; following ZIKV infection; read-out: IC50 (μM) for improving cell viability, hNPCs
row,Structure (SMILES),IC50 [µM]
1,C[C@H](NC(=O)C(=O)Nc1ccccc1C(C)(C)C)C(=O)N[C@@H](CC(=O)O)C(=O)COc1c(F)c(F)cc(F)c1F [Emricasan],3.88

# Same assay, conditions: ZIKV-infected hNPCs
row,Structure (SMILES),"Cell viability (efficacy, %) NPCs [%]"
1,COc1cccc(-c2ccc(NC(=O)C3=C(C(=O)O)CCC3)c(F)c2)c1 [Vidofludimus],0.0
2,CC(C(=O)O)c1ccc(C(=O)c2ccccc2)s1 (centres unmarked) [Tiaprofenic acid],0.0
3,"Cc1cccc(C#Cc2ccccc2)n1 [MPEP, 2-Methyl-6-(phenylethynyl)pyridine]",0.0
4,Cc1ccc(O)c(-n2nc3ccccc3n2)c1 [2-(2H-Benzotriazol-2-yl)-4-methylphenol],0.0
5,N#CC1(c2ccc(NC(=O)c3cccnc3NCc3ccncc3)cc2)CCCC1 [Apatinib],0.0
6,O=C1NC(=O)C(=Cc2ccc(-c3ccc(F)cc3)o2)S1 [CAY10505],0.0
7,CN1CCN(c2cc3c(nn2)Oc2ccccc2N3C)CC1 [Pipofezine],0.0
8,O=C1c2ccccc2C(=O)c2c1ccc(O)c2O [Alizarin],0.0
9,COc1ccc(-c2cc(=S)ss2)cc1 [Anethole trithione],0.0
10,O=C(O)c1ccccc1NCCc1ccccc1 [Enfenamic acid],58.5
11,C[C@H](NC(=O)C(=O)Nc1ccccc1C(C)(C)C)C(=O)N[C@@H](CC(=O)O)C(=O)COc1c(F)c(F)cc(F)c1F [Emricasan],54.4

# Test system: ZIKV-induced caspase 3/7 activity in human astrocytes
# Experiment: Caspase 3/7 activity assay, ZIKV-infected human astrocytes
# Type: cell-based
# Conditions: Astrocyte; ZIKV-infected human astrocytes; read-out: Caspase 3 (IC50, uM) Astrocyte
# Procedure, shortened: (§2)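 Human NPCs, SNB-19 cells or astrocytes seeded 16 h, compound added 30 min before ZIKV, then 6 h infection at 37 °C. Caspase-Glo 3/7 luminescence after 30 min at room temperature, normalized to uninfected cells (0%) and ZIKV-infected cells (100%).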
row,Structure (SMILES),IC50 [µM]
1,CN1CCN(c2cc3c(nn2)Oc2ccccc2N3C)CC1 [Pipofezine],11.3
2,O=C1c2ccccc2C(=O)c2c1ccc(O)c2O [Alizarin],30.8
3,O=C(O)c1ccccc1NCCc1ccccc1 [Enfenamic acid],25.9
4,C[C@H](NC(=O)C(=O)Nc1ccccc1C(C)(C)C)C(=O)N[C@@H](CC(=O)O)C(=O)COc1c(F)c(F)cc(F)c1F [Emricasan],0.46

# Other lines, results leading:
row,IC50 [µM],Structure (SMILES)
1,2.91,COc1cccc(-c2ccc(NC(=O)C3=C(C(=O)O)CCC3)c(F)c2)c1 [Vidofludimus]
2,6.15,CC(C(=O)O)c1ccc(C(=O)c2ccccc2)s1 (centres unmarked) [Tiaprofenic acid]
3,5.81,"Cc1cccc(C#Cc2ccccc2)n1 [MPEP, 2-Methyl-6-(phenylethynyl)pyridine]"
4,9.2,Cc1ccc(O)c(-n2nc3ccccc3n2)c1 [2-(2H-Benzotriazol-2-yl)-4-methylphenol]
5,19.5,N#CC1(c2ccc(NC(=O)c3cccnc3NCc3ccncc3)cc2)CCCC1 [Apatinib]
6,13.8,COc1ccc(-c2cc(=S)ss2)cc1 [Anethole trithione]

# Same assay, conditions: Astrocyte; ZIKV-infected human astrocytes; read-out: Caspase 3 (efficacy, %) Astrocyte
row,Structure (SMILES),Emax [%]
1,COc1cccc(-c2ccc(NC(=O)C3=C(C(=O)O)CCC3)c(F)c2)c1 [Vidofludimus],101
2,CC(C(=O)O)c1ccc(C(=O)c2ccccc2)s1 (centres unmarked) [Tiaprofenic acid],88.2
3,"Cc1cccc(C#Cc2ccccc2)n1 [MPEP, 2-Methyl-6-(phenylethynyl)pyridine]",118
4,Cc1ccc(O)c(-n2nc3ccccc3n2)c1 [2-(2H-Benzotriazol-2-yl)-4-methylphenol],68.5
5,N#CC1(c2ccc(NC(=O)c3cccnc3NCc3ccncc3)cc2)CCCC1 [Apatinib],57.9
6,CN1CCN(c2cc3c(nn2)Oc2ccccc2N3C)CC1 [Pipofezine],56.3
7,O=C1c2ccccc2C(=O)c2c1ccc(O)c2O [Alizarin],47.9
8,COc1ccc(-c2cc(=S)ss2)cc1 [Anethole trithione],62.7
9,O=C(O)c1ccccc1NCCc1ccccc1 [Enfenamic acid],58
10,C[C@H](NC(=O)C(=O)Nc1ccccc1C(C)(C)C)C(=O)N[C@@H](CC(=O)O)C(=O)COc1c(F)c(F)cc(F)c1F [Emricasan],77.1

# Same assay, conditions: ZIKV-infected human astrocytes
row,Structure (SMILES),"Caspase 3 (efficacy, %) Astrocyte [%]"
1,O=C1NC(=O)C(=Cc2ccc(-c3ccc(F)cc3)o2)S1 [CAY10505],80.1

# Same assay, conditions: ZIKV-infected human astrocytes; read-out: Caspase 3 (IC50, uM) Astrocyte
row,Structure (SMILES),IC50 [µM]
1,O=C1NC(=O)C(=Cc2ccc(-c3ccc(F)cc3)o2)S1 [CAY10505],16.4

# Test system: ZIKV-induced caspase 3/7 activity in SNB-19 cells
# Experiment: Caspase 3/7 activity assay, ZIKV-infected SNB-19 cells
# Type: cell-based
# Conditions: Homo sapiens; SNB-19 cells; three ZIKV strains MR766, FSS13025, PRVABC59; read-out: IC50 in the caspase activity assay
# Procedure, shortened: as §2
row,Structure (SMILES),IC50 [µM]
1,C[C@H](NC(=O)C(=O)Nc1ccccc1C(C)(C)C)C(=O)N[C@@H](CC(=O)O)C(=O)COc1c(F)c(F)cc(F)c1F [Emricasan],0.13 to 0.9

# Same assay, conditions: Homo sapiens; ZIKV-infected SNB-19 cells; read-out: Caspase 3 (IC50, uM) SNB-19
row,Structure (SMILES),IC50 [µM]
1,CN1CCN(c2cc3c(nn2)Oc2ccccc2N3C)CC1 [Pipofezine],15.1
2,O=C1c2ccccc2C(=O)c2c1ccc(O)c2O [Alizarin],21.8
3,C[C@H](NC(=O)C(=O)Nc1ccccc1C(C)(C)C)C(=O)N[C@@H](CC(=O)O)C(=O)COc1c(F)c(F)cc(F)c1F [Emricasan],0.62

# Now from value to compound:
row,IC50 [µM],Structure (SMILES)
1,3.66,COc1cccc(-c2ccc(NC(=O)C3=C(C(=O)O)CCC3)c(F)c2)c1 [Vidofludimus]
2,10.3,CC(C(=O)O)c1ccc(C(=O)c2ccccc2)s1 (centres unmarked) [Tiaprofenic acid]
3,5.18,"Cc1cccc(C#Cc2ccccc2)n1 [MPEP, 2-Methyl-6-(phenylethynyl)pyridine]"
4,8.69,Cc1ccc(O)c(-n2nc3ccccc3n2)c1 [2-(2H-Benzotriazol-2-yl)-4-methylphenol]
5,24.5,N#CC1(c2ccc(NC(=O)c3cccnc3NCc3ccncc3)cc2)CCCC1 [Apatinib]
6,15.5,COc1ccc(-c2cc(=S)ss2)cc1 [Anethole trithione]

# Same assay, conditions: Homo sapiens; ZIKV-infected SNB-19 cells; read-out: Caspase 3 (efficacy, %) SNB-19
row,Structure (SMILES),Emax [%]
1,COc1cccc(-c2ccc(NC(=O)C3=C(C(=O)O)CCC3)c(F)c2)c1 [Vidofludimus],101
2,CC(C(=O)O)c1ccc(C(=O)c2ccccc2)s1 (centres unmarked) [Tiaprofenic acid],96.2
3,"Cc1cccc(C#Cc2ccccc2)n1 [MPEP, 2-Methyl-6-(phenylethynyl)pyridine]",98.6
4,Cc1ccc(O)c(-n2nc3ccccc3n2)c1 [2-(2H-Benzotriazol-2-yl)-4-methylphenol],80.1
5,N#CC1(c2ccc(NC(=O)c3cccnc3NCc3ccncc3)cc2)CCCC1 [Apatinib],61.2
6,CN1CCN(c2cc3c(nn2)Oc2ccccc2N3C)CC1 [Pipofezine],31.5
7,O=C1c2ccccc2C(=O)c2c1ccc(O)c2O [Alizarin],40.9
8,COc1ccc(-c2cc(=S)ss2)cc1 [Anethole trithione],85.5
9,O=C(O)c1ccccc1NCCc1ccccc1 [Enfenamic acid],49.5
10,C[C@H](NC(=O)C(=O)Nc1ccccc1C(C)(C)C)C(=O)N[C@@H](CC(=O)O)C(=O)COc1c(F)c(F)cc(F)c1F [Emricasan],97.6

# Same assay, conditions: ZIKV-infected SNB-19 cells
row,Structure (SMILES),"Caspase 3 (efficacy, %) SNB-19 [%]"
1,O=C1NC(=O)C(=Cc2ccc(-c3ccc(F)cc3)o2)S1 [CAY10505],91.2

# Same assay, conditions: ZIKV-infected SNB-19 cells; read-out: Caspase 3 (IC50, uM) SNB-19
row,Structure (SMILES),IC50 [µM]
1,O=C1NC(=O)C(=Cc2ccc(-c3ccc(F)cc3)o2)S1 [CAY10505],17.3

# Test system: ZIKV-induced cell death in human astrocytes
# Experiment: ATP cell viability assay for ZIKV-induced cell death, human astrocytes
# Type: cell-based
# Conditions: Astrocyte; ZIKV-infected human astrocytes; read-out: Cell viability (IC50, uM) Astrocyte
row,Structure (SMILES),IC50 [µM]
1,C[C@H](NC(=O)C(=O)Nc1ccccc1C(C)(C)C)C(=O)N[C@@H](CC(=O)O)C(=O)COc1c(F)c(F)cc(F)c1F [Emricasan],4.11

# Same assay, conditions: Homo sapiens, Astrocyte; following ZIKV infection; read-out: IC50 (μM) for improving cell viability, Astrocytes
row,Structure (SMILES),IC50 [µM]
1,C[C@H](NC(=O)C(=O)Nc1ccccc1C(C)(C)C)C(=O)N[C@@H](CC(=O)O)C(=O)COc1c(F)c(F)cc(F)c1F [Emricasan],4.11

# Same assay, conditions: ZIKV-infected human astrocytes
row,Structure (SMILES),"Cell viability (efficacy, %) Astrocyte [%]"
1,COc1cccc(-c2ccc(NC(=O)C3=C(C(=O)O)CCC3)c(F)c2)c1 [Vidofludimus],0.0
2,CC(C(=O)O)c1ccc(C(=O)c2ccccc2)s1 (centres unmarked) [Tiaprofenic acid],0.0
3,"Cc1cccc(C#Cc2ccccc2)n1 [MPEP, 2-Methyl-6-(phenylethynyl)pyridine]",0.0
4,Cc1ccc(O)c(-n2nc3ccccc3n2)c1 [2-(2H-Benzotriazol-2-yl)-4-methylphenol],0.0
5,N#CC1(c2ccc(NC(=O)c3cccnc3NCc3ccncc3)cc2)CCCC1 [Apatinib],0.0
6,O=C1NC(=O)C(=Cc2ccc(-c3ccc(F)cc3)o2)S1 [CAY10505],0.0
7,CN1CCN(c2cc3c(nn2)Oc2ccccc2N3C)CC1 [Pipofezine],0.0
8,O=C1c2ccccc2C(=O)c2c1ccc(O)c2O [Alizarin],0.0
9,COc1ccc(-c2cc(=S)ss2)cc1 [Anethole trithione],0.0
10,O=C(O)c1ccccc1NCCc1ccccc1 [Enfenamic acid],0.0
11,C[C@H](NC(=O)C(=O)Nc1ccccc1C(C)(C)C)C(=O)N[C@@H](CC(=O)O)C(=O)COc1c(F)c(F)cc(F)c1F [Emricasan],98.7
